Experimental data taken from patent publication US20240240155A1, “Organoid-Derived Monolayers and Uses Thereof” (Hub Organoids IP B.V., priority 2021, published 2024).

Biological target: T1, OCT2 (Homo sapiens, UniProt O15244)
T1 construct: endogenous in cells; host or cells: human kidney organoid-derived monolayer (donor kidney-C)
T1 sequence (O15244 1-555): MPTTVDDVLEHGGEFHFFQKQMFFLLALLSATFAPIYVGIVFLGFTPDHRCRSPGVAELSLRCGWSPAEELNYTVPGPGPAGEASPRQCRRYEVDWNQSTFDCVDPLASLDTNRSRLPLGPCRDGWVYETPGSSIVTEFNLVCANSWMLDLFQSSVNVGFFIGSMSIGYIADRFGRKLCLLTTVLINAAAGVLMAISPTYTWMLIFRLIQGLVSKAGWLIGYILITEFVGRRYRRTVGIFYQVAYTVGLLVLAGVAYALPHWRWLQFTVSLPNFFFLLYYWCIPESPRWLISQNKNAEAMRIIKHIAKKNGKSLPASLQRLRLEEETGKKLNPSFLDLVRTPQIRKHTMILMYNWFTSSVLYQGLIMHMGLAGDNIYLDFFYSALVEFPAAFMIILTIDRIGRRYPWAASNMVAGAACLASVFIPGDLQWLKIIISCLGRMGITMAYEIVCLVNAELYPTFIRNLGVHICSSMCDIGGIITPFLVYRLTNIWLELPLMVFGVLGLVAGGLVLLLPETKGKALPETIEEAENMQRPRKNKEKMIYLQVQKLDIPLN
Test: Rhodamine transport assay, kidney-C monolayers
Format: cell-based
Settings: 1 μM, 30 mins; day 7
Protocol: FIG. 28 illustrates fluorescence measurements for accumulated intracellular Rhodamine 123 for kidney-C cultures grown in KEM media, with or without addition of 1 uM decitabine (DAC) on day 2 after seeding, in the presence or absence of PSC833 (a specific P-gp inhibitor) and decynium-22 (a specific OCT2 inhibitor). A sample incubated with PBS only (without […]) was used as a negative control. RFU, relative fluorescence units.
Rhodamine transport from the basolateral compartment into kidney monolayers grown in either the KEM or DAC conditions as described in Example 9 was measured on day 7 after seeding in the presence or absence of the P-gp inhibitor PSC-833 and/or OCT2 inhibitor Decynium-22 as follows: • 1. Remove media and rinse cells using PBS. • 2. Add fresh buffer under one of the following conditions (37° C.): • 1. 1 μM Decynium-22, 30 mins, • 2. 1 μM PSC-833, 30 mins, • 3. 1 μM Decynium-22 and 1 μM PSC-833, 30 mins, or • 4. Untreated Control, 30 mins. • 3. Add Rhodamine 123 at a final concentration 250 nM to the basolateral compartment and incubate for 30 minutes at 37° C. • 4. Analyse cellular accumulation of Rhodamine 123 using fluorescence (Excitation λ 490 nm, Emission λ 520 nm). • 5. Assess accumulation differences.

**Q.** `CCN1/C(=C/c2ccc3ccccc3[n+]2CC)C=Cc2ccccc21.[I-]` [Decynium-22] was tested. Which “cellular accumulation of Rhodamine” value did it give?
**A.** decreased accumulation
